From ChEMBL document CHEMBL1201862, “PubChem BioAssay data set” (2004)
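These data come from cells grown in 96-well plates and exposed to compound for 48 hours at five concentrations. Here, GI50 denotes the concentration required for 50% inhibition of growth.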 Calls of active or inactive are those of the source. Cut-off read from the data, not from the text of the source: active = GI50 up to about 1.1 µM and inactive = higher.

What was measured:
Test in all cases: growth of human tumour cells (NCI), 48 h
MDA-N = system: MDA-N
HOP-92 = system: HOP-92
A549 = system: A549
M14 = system: M14
NCI-H226 = system: NCI-H226
HL-60 = system: HL-60
MDA-MB-231 = system: MDA-MB-231
OVCAR-4 = system: OVCAR-4
UO-31 = system: UO-31
PC-3 = system: PC-3
COLO 205 = system: COLO 205
786-0 = system: 786-0
MDA-MB-435 = system: MDA-MB-435
Malme-3M = system: Malme-3M
SK-OV-3 = system: SK-OV-3
NCI/ADR-RES = system: NCI/ADR-RES
UACC-257 = system: UACC-257
MOLT-4 = system: MOLT-4
K562 = system: K562
RPMI-8226 = system: RPMI-8226

Compound	GI50 (MDA-N)	GI50 (HOP-92)	GI50 (A549)	GI50 (M14)	GI50 (NCI-H226)	GI50 (HL-60)	GI50 (MDA-MB-231)	GI50 (OVCAR-4)	GI50 (UO-31)	GI50 (PC-3)	GI50 (COLO 205)	GI50 (786-0)	GI50 (MDA-MB-435)	GI50 (Malme-3M)	GI50 (SK-OV-3)	GI50 (NCI/ADR-RES)	GI50 (UACC-257)	GI50 (MOLT-4)	GI50 (K562)	GI50 (RPMI-8226)
COc1ccc2c(cnc3c4cc(OC)c(OC)cc4ccc23)c1	> 100 µM (inactive)	> 100 µM (inactive)	> 100 µM (inactive)	> 100 µM (inactive)	> 100 µM (inactive)	> 100 µM (inactive)	> 100 µM (inactive)	> 100 µM (inactive)	> 100 µM (inactive)	> 100 µM (inactive)	> 100 µM (inactive)	> 100 µM (inactive)	> 100 µM (inactive)	> 100 µM (inactive)	> 100 µM (inactive)	> 100 µM (inactive)	> 100 µM (inactive)	> 100 µM (inactive)	> 100 µM (inactive)	
O=C1C=CC(=O)N1n1c(Cc2ccccc2)n[nH]c1=O	> 100 µM (inactive)	> 100 µM (inactive)	> 100 µM (inactive)		> 100 µM (inactive)	> 100 µM (inactive)	> 100 µM (inactive)	> 100 µM (inactive)	> 100 µM (inactive)	> 100 µM (inactive)	> 100 µM (inactive)	> 100 µM (inactive)	> 100 µM (inactive)	> 100 µM (inactive)	> 100 µM (inactive)	> 100 µM (inactive)	> 100 µM (inactive)	> 100 µM (inactive)	> 100 µM (inactive)	> 100 µM (inactive)
COc1ccc(OC)c2sc(N3C(=O)/C(=C/c4ccccc4S)N=C3c3ccccc3)nc12	21.8 µM (inactive)	> 100 µM (inactive)	42.8 µM (inactive)	36.5 µM (inactive)		26.1 µM (inactive)	> 100 µM (inactive)	39.5 µM (inactive)	28.1 µM (inactive)	19.7 µM (inactive)	32.8 µM (inactive)	59.2 µM (inactive)	17.6 µM (inactive)		> 100 µM (inactive)	77.8 µM (inactive)	63 µM (inactive)	8.83 µM (inactive)	26 µM (inactive)	22.6 µM (inactive)
O=[N+]([O-])c1ccc(/N=N/c2c(O)ccc3cc(S(=O)(=O)O)cc(S(=O)(=O)O)c23)cc1	> 100 µM (inactive)	> 100 µM (inactive)	> 100 µM (inactive)	> 100 µM (inactive)	> 100 µM (inactive)		> 100 µM (inactive)	> 100 µM (inactive)	> 100 µM (inactive)	> 100 µM (inactive)	> 100 µM (inactive)	> 100 µM (inactive)	> 100 µM (inactive)	> 100 µM (inactive)	> 100 µM (inactive)	> 100 µM (inactive)	> 100 µM (inactive)	> 100 µM (inactive)	> 100 µM (inactive)	> 100 µM (inactive)
COc1ccc(-c2nc(N)c3ncn(C4OC(CO)C(O)C4O)c3n2)cc1 (stereo not given)	> 100 µM (inactive)	> 100 µM (inactive)	> 100 µM (inactive)	> 100 µM (inactive)	> 100 µM (inactive)	> 100 µM (inactive)	> 100 µM (inactive)	> 100 µM (inactive)		> 100 µM (inactive)	> 100 µM (inactive)	> 100 µM (inactive)	> 100 µM (inactive)	> 100 µM (inactive)	> 100 µM (inactive)	> 100 µM (inactive)	> 100 µM (inactive)	70.6 µM (inactive)	> 100 µM (inactive)	> 100 µM (inactive)
COc1cccc(N2C(=O)C3c4[nH]c5ccc(C)cc5c4C4CCC(C)CC4C3C2=O)c1 (stereo not given)	> 100 µM (inactive)	34 µM (inactive)	> 100 µM (inactive)	> 100 µM (inactive)	> 100 µM (inactive)	10.6 µM (inactive)	26.5 µM (inactive)		> 100 µM (inactive)	> 100 µM (inactive)	> 100 µM (inactive)	26.5 µM (inactive)	> 100 µM (inactive)	> 100 µM (inactive)	30.3 µM (inactive)	> 100 µM (inactive)	> 100 µM (inactive)	> 10 µM (inactive)	30.3 µM (inactive)	> 100 µM (inactive)
CC(C)=CCC[C@@H](C)C1=C(O)C(O)C(C)=C2N=C(c3ccccc3)C(=O)OC21 (stereo not given in full)	7.57 µM (inactive)	0.723 µM (active)	2.65 µM (inactive)	4.71 µM (inactive)	2.88 µM (inactive)	0.521 µM (active)	2.52 µM (inactive)	4.41 µM (inactive)	5.22 µM (inactive)	8.36 µM (inactive)	9.38 µM (inactive)	7.8 µM (inactive)	3.18 µM (inactive)	1.14 µM (inactive)	1.12 µM (inactive)	0.794 µM (active)	2.88 µM (inactive)	> 7.41 µM (inactive)	1.24 µM (inactive)	
O=c1oc2c(Br)c(O)c(Br)cc2c2ccccc12	31.5 µM (inactive)	22.5 µM (inactive)	32.5 µM (inactive)	31.9 µM (inactive)	27.1 µM (inactive)	23 µM (inactive)	16.9 µM (inactive)	29.7 µM (inactive)		21 µM (inactive)	29.9 µM (inactive)	42.1 µM (inactive)	36.6 µM (inactive)	26.5 µM (inactive)		12.2 µM (inactive)	18 µM (inactive)	27.4 µM (inactive)	23.1 µM (inactive)	27 µM (inactive)
